Experimental data taken from patent EP0497303B1, “Carbamic acid derivatives and method for preparing the same” (KYORIN PHARMACEUTICAL CO., LTD., priority 1991, dated 1992).

Tested on: amnesia induced by exposure to carbon dioxide gas
Experiment: Action against amnesia induced by exposure to carbon dioxide gas (step-through passive avoidance)
Assay type: in vivo, Std: ddy strain male mice
Conditions: for Reaction latency(sec) Mean±S.E: orally immediately after exposure to carbon dioxide gas and one hour before retention trial, retention trial after 24 hours, maximum 300 seconds; for Rate of improvement (%): orally, relative to CO2 treated and non-treated groups
Source text: The apparatus used was a passive avoidance apparatus of a step-through type (made by O'Hara Co., Ltd.). In the aquisition trial, each mouse was placed in the light compartment, a guillotine door of partition thereof was opened after 10 seconds, the guillotine door was closed as soon as the mouse moved into the dark compartment and an electric shock of 33 - 50 v was given for 1 second through the metal grid bars of the floor. Immediately after the electric shock was given, the mouse was taken out and was accommodated in a container having volume of ca. 300 ml filled with carbon dioxide gas. After immediately exposed to carbon dioxide gas having flow rate of ca. 5 liter/min. for 25 - 45 seconds, the mouse was taken out and was reanimated by artificial breathing. The retention trial was carried out after 24 hours. In the retention trial, the mouse was again placed in the light compartment, the time till the movement to the dark compartment was measured as a reaction latency until maximum 300 seconds and the mouse showing latency beyond it was deemed as 300 seconds. In addition, immediately after aquisition trial, a group not to exposed to carbon dioxide gas (comparison group of non-amnesia) was also made. The mouse was grouped per 10 - 30, the subject medicament was orally administered immediately after exposed to carbon dioxide gas and one hour before the retention trial. Rate of improvement =(Latency of CO2 -drug treated group - Latency of carbon dioxide exposed group)/(Latency of non-dementia group - Latency of carbon dioxide exposed group)x 100 [formula]

CN1CCCC(OC(=O)Nc2ccccc2)C1 (centres unmarked) [Compound A, 3-(1-methylpiperidinyl) phenylcarbamate]
Reaction latency(sec) Mean±S.E (Dose 100 mg/kg): 175.3 ± 36.7 s
Rate of improvement (%) (Dose 100 mg/kg): 15.2%

C1=Cc2cccc(OCC3CNCCO3)c2C1 (centres unmarked) [Indeloxazine]
Reaction latency(sec) Mean±S.E (Dose 40 mg/kg): 219.3 ± 17.8 s
Rate of improvement (%) (Dose 40 mg/kg): 30.1%
improving activity to disturbance of memory (summary in words of Table 1): vitiated or not enough

O=C(Nc1ccc(Cl)cc1)OC1CCN(c2ccncc2)CC1 [Example 2]
Reaction latency(sec) Mean±S.E (Dose 10 mg/kg): 150.7 ± 27.1 s
Rate of improvement (%) (Dose 10 mg/kg): 42.9%
Reaction latency(sec) Mean±S.E (Dose 30 mg/kg): 231.2 ± 19.0 s
Rate of improvement (%) (Dose 30 mg/kg): 76.8%

O=C(Nc1ccc(Cl)cc1)OC1CCCN(c2ccncc2)C1 (centres unmarked) [Example 49]
Reaction latency(sec) Mean±S.E (Dose 10 mg/kg): 154.0 ± 27.2 s
Reaction latency(sec) Mean±S.E (Dose 30 mg/kg): 183.7 ± 26.3 s
Rate of improvement (%) (Dose 30 mg/kg): 45.3%

COC(=O)C1=C(C)NC(C)=C(C(=O)OCCN(C)Cc2ccccc2)C1c1cccc([N+](=O)[O-])c1 (centres unmarked) [Nicardipine]
Reaction latency(sec) Mean±S.E (Dose 5 mg/kg): 92.9 ± 28.1 s
Rate of improvement (%) (Dose 5 mg/kg): -59.8%
